From ChEMBL document CHEMBL5104192, “Late-Stage Functionalization with Cysteine Staples Generates Potent and Selective Melanocortin Receptor-1 Agonists” (J Med Chem, 2022)
*1 amine or outer side, *2 acyl side, *3 side chain or, on linkers, in order; H or OH if unused. Where a SMILES comes first, the peptide text is derived from it. Bridges are numbered along the chain shown (N, C = ends). [ ]: non-standard residue; d: D form. X6 = O=C(NCCOCCOCCNC(=O)c1ccc2c(c1)C(=O)OC21c2ccc(O)cc2Oc2cc(O)ccc21)OCC1C2CCc3c([*:1])nnc([*:2])c3CCC21; X5 = O=C(O)CCOCCOCCOCCOCCNC(=O)OCC1C2CCc3c([*:1])nnc([*:2])c3CCC21; Maleimide(3,4-diyl) = O=C1NC(=O)C([*:2])=C1[*:1]; X4 = C#CCCCCN1C(=O)C([*:1])=C([*:2])C1=O; X3 = NC(=O)/C(=C(\C(=O)O)[*:2])[*:1]; mXylylene = c1cc(C[*:1])cc(C[*:2])c1; oXylylene = c1ccc(C[*:2])c(C[*:1])c1; pXylylene = c1cc(C[*:2])ccc1C[*:1]; NMeR = CN[C@@H](CCCNC(=N)N)C(=O)O; CH2COCH2 = O=C(C[*:1])C[*:2]; Nle = CCCC[C@H](N)C(=O)O; X7 = C(C[*:1])C[*:2]

Columns and labels:
[1] = biological target: T1, Melanocyte-stimulating hormone receptor (Homo sapiens, UniProt Q01726); assay: Displacement of [125I]-NDP-alpha-MSH from human MC1R expressed in HEK2936E cell membrane measured after 16 to 23 hrs by 1450 microbeta trilux scintillation proximity assay; assay type: cell membranes
T1 sequence (Q01726 whole entry): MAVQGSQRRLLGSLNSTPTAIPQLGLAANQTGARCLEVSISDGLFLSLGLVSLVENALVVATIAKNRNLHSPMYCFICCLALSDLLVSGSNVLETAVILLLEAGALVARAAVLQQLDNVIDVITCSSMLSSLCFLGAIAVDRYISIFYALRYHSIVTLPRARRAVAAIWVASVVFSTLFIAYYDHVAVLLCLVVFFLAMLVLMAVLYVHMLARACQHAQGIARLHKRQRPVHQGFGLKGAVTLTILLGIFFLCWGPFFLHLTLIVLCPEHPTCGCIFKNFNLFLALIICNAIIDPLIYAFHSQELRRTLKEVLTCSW

[2] = biological target: T2, Melanocortin receptor 4 (Homo sapiens, UniProt P32245); assay: Agonist activity at human MC4R expressed in HEK2936E cells assessed as cAMP production in presence of IBMX by time resolved fluorescence assay; assay type: functional, cell-based
T2 sequence (P32245 whole entry): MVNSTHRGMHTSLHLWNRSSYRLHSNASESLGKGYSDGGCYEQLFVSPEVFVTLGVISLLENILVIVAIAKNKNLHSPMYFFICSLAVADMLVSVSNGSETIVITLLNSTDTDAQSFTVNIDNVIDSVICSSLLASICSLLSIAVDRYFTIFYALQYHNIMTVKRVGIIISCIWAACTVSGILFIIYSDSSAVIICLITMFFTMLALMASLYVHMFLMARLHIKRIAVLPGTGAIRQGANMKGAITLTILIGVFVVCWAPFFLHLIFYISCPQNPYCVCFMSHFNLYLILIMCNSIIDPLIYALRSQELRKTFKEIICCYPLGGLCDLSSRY

[3] = biological target: T2, Melanocortin receptor 4; assay: Displacement of [125I]-NDP-alpha-MSH from human MC4R expressed in HEK2936E cell membrane measured after 16 to 23 hrs by 1450 microbeta trilux scintillation proximity assay; assay type: cell membranes
[4] = biological target: T1, Melanocyte-stimulating hormone receptor; assay: Agonist activity at human MC1R expressed in HEK2936E cells assessed as cAMP production in presence of IBMX by time resolved fluorescence assay; assay type: functional, cell-based
[5] = species on record: Homo sapiens; assay: Selectivity ratio of EC50 for human MC4R to EC50 for human MC1R
[6] = biological target: T3, Melanocortin receptor 3 (Homo sapiens, UniProt P41968); assay: Displacement of [125I]-NDP-alpha-MSH from human MC3R expressed in HEK2936E cell membrane measured after 16 to 23 hrs by 1450 microbeta trilux scintillation proximity assay; assay type: cell membranes
T3 sequence (P41968 whole entry): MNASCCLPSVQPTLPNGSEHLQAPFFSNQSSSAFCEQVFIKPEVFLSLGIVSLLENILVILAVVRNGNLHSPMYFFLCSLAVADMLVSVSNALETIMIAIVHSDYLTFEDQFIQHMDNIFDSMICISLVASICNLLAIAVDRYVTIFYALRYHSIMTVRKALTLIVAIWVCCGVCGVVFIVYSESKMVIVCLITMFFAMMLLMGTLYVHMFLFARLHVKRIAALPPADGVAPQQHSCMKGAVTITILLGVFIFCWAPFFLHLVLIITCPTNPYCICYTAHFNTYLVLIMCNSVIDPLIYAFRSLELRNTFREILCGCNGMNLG

[7] = species on record: Homo sapiens; assay: Selectivity ratio of Ki for human MC3R to Ki for human MC1R
[8] = species on record: Homo sapiens; assay: Selectivity ratio of EC50 for human MC3R to EC50 for human MC1R
[9] = species on record: Homo sapiens; assay: Selectivity ratio of Ki for human MC4R to Ki for human MC1R
[10] = biological target: T3, Melanocortin receptor 3; assay: Agonist activity at human MC3R expressed in HEK2936E cells assessed as cAMP production in presence of IBMX by time resolved fluorescence assay; assay type: functional, cell-based

Compound	Ki [1]	EC50 [2]	Ki [3]	EC50 ([4]; read-out: pEC50 (converted))	Ratio EC50 [5]	Ki [6]	Ratio Ki [7]	Ratio EC50 [8]	Ratio Ki [9]	EC50 [10]	EC50 ([4]; read-out: EC50)
CCCC[C@@H]1NC(=O)[C@@H]2CSC3=C(SC[C@H](NC(=O)[C@H](CCCNC(=N)N)NC(=O)[C@H](CC(=O)O)NC(=O)[C@H](Cc4c[nH]c5ccccc45)NC(=O)[C@H](CCCNC(=N)N)NC(=O)[C@H](Cc4ccccc4)NC(=O)[C@H](Cc4cnc[nH]4)NC(=O)CNC1=O)C(=O)N[C@@H](Cc1cnc[nH]1)C(=O)N[C@@H](Cc1ccccc1)C(=O)N[C@@H](CCCNC(=N)N)C(=O)N[C@@H](Cc1c[nH]c4ccccc14)C(=O)N[C@@H](CCCNC(=N)N)C(=O)N2)C(=O)NC3=O (cyclo(CHFRWRC[Nle]GHFRWDR); linker 1-7 via Maleimide(3,4-diyl))	3.63 nM	5.01 nM	81.3 nM	0.288 nM	17	28.2 nM	8	1	22	0.398 nM	
CCCC[C@@H]1NC(=O)[C@@H]2CSSC[C@H](NC(=O)[C@H](CCCNC(=N)N)NC(=O)[C@H](CC(=O)O)NC(=O)[C@H](Cc3c[nH]c4ccccc34)NC(=O)[C@H](CCCNC(=N)N)NC(=O)[C@H](Cc3ccccc3)NC(=O)[C@H](Cc3cnc[nH]3)NC(=O)CNC1=O)C(=O)N[C@@H](Cc1cnc[nH]1)C(=O)N[C@@H](Cc1ccccc1)C(=O)N[C@@H](CCCNC(=N)N)C(=O)N[C@@H](Cc1c[nH]c3ccccc13)C(=O)N[C@@H](CCCNC(=N)N)C(=O)N2 (cyclo(CHFRWRC[Nle]GHFRWDR); disulfide 1-7)	3.31 nM	8.13 nM	81.3 nM	0.339 nM	35	20.9 nM	6	1	25	0.229 nM	
CCCC[C@@H]1NC(=O)[C@@H]2CSc3nnc(c4c3CCC3C(CC4)C3COC(=O)NCCOCCOCCNC(=O)c3ccc4c(c3)C(=O)OC43c4ccc(O)cc4Oc4cc(O)ccc43)SC[C@H](NC(=O)[C@H](CCCNC(=N)N)NC(=O)[C@H](CC(=O)O)NC(=O)[C@H](Cc3c[nH]c4ccccc34)NC(=O)[C@H](CCCNC(=N)N)NC(=O)[C@H](Cc3ccccc3)NC(=O)[C@H](Cc3cnc[nH]3)NC(=O)CNC1=O)C(=O)N[C@@H](Cc1cnc[nH]1)C(=O)N[C@@H](Cc1ccccc1)C(=O)N[C@@H](CCCNC(=N)N)C(=O)N[C@@H](Cc1c[nH]c3ccccc13)C(=O)N[C@@H](CCCNC(=N)N)C(=O)N2 (stereo partly specified) (cyclo(CHFRWRC[Nle]GHFRWDR); linker 1-7 via X6)	2.82 nM	16.6 nM	263 nM	0.24 nM	69	30.9 nM	11	4	93	0.955 nM	< 0.3 nM
C#CCCCCN1C(=O)C2=C(SC[C@@H]3NC(=O)[C@H](CCCNC(=N)N)NC(=O)[C@H](CC(=O)O)NC(=O)[C@H](Cc4c[nH]c5ccccc45)NC(=O)[C@H](CCCNC(=N)N)NC(=O)[C@H](Cc4ccccc4)NC(=O)[C@H](Cc4cnc[nH]4)NC(=O)CNC(=O)[C@H](CCCC)NC(=O)[C@H](CS2)NC(=O)[C@H](CCCNC(=N)N)NC(=O)[C@H](Cc2c[nH]c4ccccc24)NC(=O)[C@H](CCCNC(=N)N)NC(=O)[C@H](Cc2ccccc2)NC(=O)[C@H](Cc2cnc[nH]2)NC3=O)C1=O (cyclo(CHFRWRC[Nle]GHFRWDR); linker 1-7 via X4)	1.78 nM	2.19 nM	61.7 nM	0.0813 nM	27	16.6 nM	9	2	35	0.158 nM	
CCCC[C@@H]1NC(=O)[C@@H]2CSc3nnc(c4c3CCC3C(CC4)C3COC(=O)NCCOCCOCCOCCOCCC(=O)O)SC[C@H](NC(=O)[C@H](CCCNC(=N)N)NC(=O)[C@H](CC(=O)O)NC(=O)[C@H](Cc3c[nH]c4ccccc34)NC(=O)[C@H](CCCNC(=N)N)NC(=O)[C@H](Cc3ccccc3)NC(=O)[C@H](Cc3cnc[nH]3)NC(=O)CNC1=O)C(=O)N[C@@H](Cc1cnc[nH]1)C(=O)N[C@@H](Cc1ccccc1)C(=O)N[C@@H](CCCNC(=N)N)C(=O)N[C@@H](Cc1c[nH]c3ccccc13)C(=O)N[C@@H](CCCNC(=N)N)C(=O)N2 (stereo partly specified) (cyclo(CHFRWRC[Nle]GHFRWDR); linker 1-7 via X5)	0.631 nM	10.5 nM	166 nM	0.0891 nM	117	35.5 nM	56	7	263	0.603 nM	
CCCC[C@@H]1NC(=O)[C@@H]2CS/C(C(=O)O)=C(/C(N)=O)SC[C@H](NC(=O)[C@H](CCCNC(=N)N)NC(=O)[C@H](CC(=O)O)NC(=O)[C@H](Cc3c[nH]c4ccccc34)NC(=O)[C@H](CCCNC(=N)N)NC(=O)[C@H](Cc3ccccc3)NC(=O)[C@H](Cc3cnc[nH]3)NC(=O)CNC1=O)C(=O)N[C@@H](Cc1cnc[nH]1)C(=O)N[C@@H](Cc1ccccc1)C(=O)N[C@@H](CCCNC(=N)N)C(=O)N[C@@H](Cc1c[nH]c3ccccc13)C(=O)N[C@@H](CCCNC(=N)N)C(=O)N2 (cyclo(CHFRWRC[Nle]GHFRWDR); linker 1-7 via X3)	9.77 nM	11.2 nM	302 nM	0.479 nM	23	295 nM	30	5	31	2.57 nM	

More lines, now with the values ahead:

Ki [1]	EC50 [2]	Ki [3]	EC50 ([4]; read-out: pEC50 (converted))	Ratio EC50 [5]	Ki [6]	Ratio Ki [7]	Ratio EC50 [8]	Ratio Ki [9]	EC50 [10]	EC50 ([4]; read-out: EC50)	Compound
2.09 nM	7.24 nM	43.7 nM	0.55 nM	13	23.4 nM	11	1	21	0.692 nM		CCCC[C@@H]1NC(=O)[C@@H]2CSCC(=O)CSC[C@H](NC(=O)[C@H](CCCNC(=N)N)NC(=O)[C@H](CC(=O)O)NC(=O)[C@H](Cc3c[nH]c4ccccc34)NC(=O)[C@H](CCCNC(=N)N)NC(=O)[C@H](Cc3ccccc3)NC(=O)[C@H](Cc3cnc[nH]3)NC(=O)CNC1=O)C(=O)N[C@@H](Cc1cnc[nH]1)C(=O)N[C@@H](Cc1ccccc1)C(=O)N[C@@H](CCCNC(=N)N)C(=O)N[C@@H](Cc1c[nH]c3ccccc13)C(=O)N[C@@H](CCCNC(=N)N)C(=O)N2 (cyclo(CHFRWRC[Nle]GHFRWDR); linker 1-7 via CH2COCH2)
112 nM	309 nM	759 nM	5.13 nM	60	9770 nM	87	32	7	162 nM		CC[C@H](C)[C@@H]1NC(=O)[C@@H]2CCCN2C(=O)[C@H](Cc2c[nH]c3ccccc23)NC(=O)[C@H](CCCNC(=N)N)N(C)C(=O)[C@H](Cc2ccccc2)NC(=O)[C@H](Cc2cnc[nH]2)NC(=O)[C@H]([C@@H](C)O)NC(=O)[C@@H](NC(C)=O)CSCc2ccc(cc2)CSC[C@@H](C(N)=O)NC1=O (Ac-CTHF[NMeR]WPIC-NH2; linker 1-9 via pXylylene)
64.6 nM	398 nM	2140 nM	1.86 nM	212	12300 nM	191	58	33	295 nM		CC[C@H](C)[C@@H]1NC(=O)[C@@H]2CCCN2C(=O)[C@H](Cc2c[nH]c3ccccc23)NC(=O)[C@H](CCCNC(=N)N)N(C)C(=O)[C@H](Cc2ccccc2)NC(=O)[C@H](Cc2cnc[nH]2)NC(=O)[C@H]([C@@H](C)O)NC(=O)[C@@H](NC(C)=O)CSCc2ccccc2CSC[C@@H](C(N)=O)NC1=O (Ac-CTHF[NMeR]WPIC-NH2; linker 1-9 via oXylylene)
1.32 nM	2.88 nM	44.7 nM	0.141 nM	20	19.5 nM	15	2	34	0.302 nM		CCCC[C@@H]1NC(=O)[C@@H]2CSCCCSC[C@H](NC(=O)[C@H](CCCNC(=N)N)NC(=O)[C@H](CC(=O)O)NC(=O)[C@H](Cc3c[nH]c4ccccc34)NC(=O)[C@H](CCCNC(=N)N)NC(=O)[C@H](Cc3ccccc3)NC(=O)[C@H](Cc3cnc[nH]3)NC(=O)CNC1=O)C(=O)N[C@@H](Cc1cnc[nH]1)C(=O)N[C@@H](Cc1ccccc1)C(=O)N[C@@H](CCCNC(=N)N)C(=O)N[C@@H](Cc1c[nH]c3ccccc13)C(=O)N[C@@H](CCCNC(=N)N)C(=O)N2 (cyclo(CHFRWRC[Nle]GHFRWDR); linker 1-7 via X7)
110 nM	302 nM	1290 nM	2.95 nM	103	9120 nM	83	66	12	195 nM		CC[C@H](C)[C@@H]1NC(=O)[C@@H]2CCCN2C(=O)[C@H](Cc2c[nH]c3ccccc23)NC(=O)[C@H](CCCNC(=N)N)N(C)C(=O)[C@H](Cc2ccccc2)NC(=O)[C@H](Cc2cnc[nH]2)NC(=O)[C@H]([C@@H](C)O)NC(=O)[C@@H](NC(C)=O)CSCc2cccc(c2)CSC[C@@H](C(N)=O)NC1=O (Ac-CTHF[NMeR]WPIC-NH2; linker 1-9 via mXylylene)
